Consider six compounds from patent US20210163443A1, “Febrifugine Derivatives” (BRISTOL-MYERS SQUIBB COMPANY, priority 2019, published 2021).

Molecules are shown by their SMILES. pIC50: −log10 of the molar value. Read-outs that look alike come from different tables or passages of the source.

Data set [1] concerns the target T1, human ProRS (prolyl tRNA synthetase moiety of glutamyl prolyl tRNA synthetase, EPRS) (Homo sapiens, UniProt P07814).
T1 construct: The prolyl tRNA synthetase moiety (ProRS) in the cDNA of glutamyl prolyl tRNA synthetase was subcloned; 6xHis (N, cleaved yes); made in house; host or cells: E. coli BL21 (DE3)
T1 sequence (P07814 1007-1512 limits assumed): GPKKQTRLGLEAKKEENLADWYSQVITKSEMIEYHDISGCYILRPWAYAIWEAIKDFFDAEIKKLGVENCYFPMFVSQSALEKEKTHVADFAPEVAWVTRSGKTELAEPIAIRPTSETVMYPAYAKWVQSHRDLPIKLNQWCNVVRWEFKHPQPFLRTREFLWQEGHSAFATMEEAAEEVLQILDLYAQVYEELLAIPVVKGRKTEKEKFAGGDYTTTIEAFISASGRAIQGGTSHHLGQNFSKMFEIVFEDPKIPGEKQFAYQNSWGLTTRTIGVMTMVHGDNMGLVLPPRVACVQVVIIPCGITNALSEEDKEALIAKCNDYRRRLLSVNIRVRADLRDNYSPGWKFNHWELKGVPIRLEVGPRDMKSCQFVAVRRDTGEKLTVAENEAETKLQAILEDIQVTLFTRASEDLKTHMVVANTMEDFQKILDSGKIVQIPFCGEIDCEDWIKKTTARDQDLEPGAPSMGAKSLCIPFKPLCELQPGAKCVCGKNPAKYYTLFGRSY
The experiment in a line: Assay for inhibitors of prolyl tRNA synthetase activity (ProRS assay, labeled proline incorporation). It is filed as biochemical. The procedure, abridged: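 Biotinylated N-His-tagged human ProRS (20 nM) from E. coli, with Tris-Cl pH 7.5, 2 mM DTT, 5 mM ATP, MgCl2, bovine tRNA; compounds (10 μM to 0.5 nM) preincubated 15 min on ice. Started with proline (3.96 μM unlabeled, 1.04 μM labeled), 10 min at 37 °C, TCA-precipitated and scintillation-counted; IC50 from 4-parameter fit.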

Data set [2] concerns Rat hepatocytes. The experiment in a line: GSH trapping assay in rat hepatocytes. In kind it is in vitro ADME. Conditions: 30 μM, 24 hr incubation, LC-MS. The procedure: Rat hepatocytes were isolated from male Sprague-Dawley rats (Vivo Biotech Ltd, HYD, India), weighing 230 to 280 g by the two step collagenase perfusion method (seglen, 1976; Berry M N and Friend D S.1969). Rat hepatocytes were cultured in Dulbecco's Modified Eagle's Medium (DMEM, Gibco®, USA) supplemented with 10^−6 M dexamethasone (Gibco®), 5% fetal bovine serum (Gibco®) and cocktail-A mix (CM3000, Gibco®) containing HEPES buffer (PH 7.4), GlutaMAX™, human recombinant insulin, penicillin and streptomycin. Initial cell viability assessed by Trypanblue stain 0.4% (Sigma, UK) and viability more than 80% were considered for culturing. Hepatocytes were seeded in 96 well type-I collagen coated plates (Gibco®) at 4×10^4 cells/well in 100 μL of the culture medium and incubated at 37° C. in 5% CO2 and 95% relative humidity (RH) for 4 hr of cell attachment.
After 4 hr incubation, rat hepatocytes were washed twice with pre-warmed (37° C.) DMEM incubation medium supplemented with 10^−7 M dexamethasone and cell maintenance cocktail-B (CM4000, Gibco®) solution to remove unattached cells. Post washing hepatocytes were treated with test and reference compounds in incubation medium at single concentration (30 μM) in duplicate and incubate further for 24 hr at 37° C. with 5% CO2 and 95% RH. The final concentration of DMSO in medium was 0.5%.
Post 24 hr incubation, hepatocyte samples were quenched with equal volumes of acetonitrile containing 0.1% formic acid followed by vortex mix, sonicate and centrifuge at 12000 rpm at room temperature for 5 min. Supernatant samples were analyzed for GSH adducts on a C18 reverse-phase column (Xbridge™ Shield, C18, 4.6×150 mm, 3.5 μm) with solvent A (10 mM ammonium formate and 0.1% formic acid/water) and solvent B (0.1% formic acid/acetonitrile).
The column was eluted with 5% B for 5 min and then with a linear gradient to 20% B over 10 min and it was maintained up to 15 min, then it was increased linearly to 40% B up to 27 min and then increase to 90% B up to 29 min, and then equilibrate back the column to 5% B up to 33 min at a flow rate of 0.6 ml/min. The column effluent was directed into the ESI source of a LTQ Velos Orbitrap mass spectrometer (Thermo Fisher Scientific, San Jose, Calif.). The ESI conditions were as follows: sheath gas flow rate, 40 arbitrary units; auxiliary gas, 30 arbitrary units; spray voltage, 4.5 kV; capillary temperature, 230° C.; capillary voltage, 30 V; and tube lens offset, 25 V. Data were acquired in positive ion mode using Xcalibur software (Thermo Fisher Scientific) with one full scan followed by two data-dependent scans of the most intense and the second most intense ions. During the data interpretation the characteristic fragments of neutral loss of glycine (75.0320 Da), pyroglutamic acid (129.0426 Da) and loss of neutral moiety GSH (307.0838 Da) and/or a specific fragment of (GSH+H)^+ (m/z 308.0911) were monitored. Finally the fragments ions with m/z e.g. 179.0485, 177.0328 and 162.0219 Da, which were derived from the glutathione moiety were used to report GSH positive results.

The conditions of data set [3]: cited from earlier work.
For data set [4] the following is noted: in vivo; cited from earlier work.
Where [5] appears, read: human ProRS 20 nM, 10 min at 37° C., read-out: EPRS IC50.

For orientation: pIC50 means the IC50 on a negative log10 scale, so that one unit is a factor of ten. In data set [1], `Cc1cc2ncn(C[C@@H](O)C[C@H]3NCCC[C@@H]3O)c(=O)c2cc1Cl.Cl` [Example 31, 6-Chloro-3-{(S)-2-hydroxy-3-[(2R,3S)-3-hydroxypiperidin-2-yl]propyl}-7-methylquinazolin-4(3H)-one hydrochloride] gave a negative-log IC50 (pIC50) of 7.77. Besides, in data set [2], the GSH adduct formation result is listed as “Negative (detected by mass only)”.

Turning to `Cc1cc2ncn(C[C@@H](O)C[C@H]3NCCC[C@@H]3O)c(=O)c2cc1F.Cl` [Example 32, 6-Fluoro-3-{(S)-2-hydroxy-3-[(2R,3S)-3-hydroxypiperidin-2-yl]propyl}-7-methylquinazolin-4(3H)-one hydrochloride], the negative logarithm of the IC50 (pIC50) in data set [1] (setting [5]) was 7.26. Further, the GSH adduct formation result in data set [2] was “Negative”.

On to `COc1cc2ncn(C[C@@H](O)C[C@H]3NCCC[C@@H]3O)c(=O)c2cc1Cl.Cl` [Example 33, 6-Chloro-3-{(S)-2-hydroxy-3-[(2R,3S)-3-hydroxypiperidin-2-yl]propyl}-7-methoxyquinazolin-4(3H)-one hydrochloride], for which, in data set [1] (setting [5]), the pIC50 was 6.94. Besides, the GSH adduct formation entry in data set [2] is given as “Negative”.

Consider `Cl.O=c1c2c(F)cccc2ncn1C[C@@H](O)C[C@H]1NCCC[C@@H]1O` [Example 40, 5-Fluoro-3-{(S)-2-hydroxy-3-[(2R,3S)-3-hydroxypiperidin-2-yl]propyl}quinazolin-4(3H)-one hydrochloride], for which, in data set [1] (setting [5]), the pIC50 was 6.52. For the same compound, in data set [2], the GSH adduct formation entry is given as “Negative”.

On to `CCc1cc(Br)cc2c(=O)n(C[C@@H](O)C[C@H]3NCCC[C@@H]3O)cnc12.Cl` [Example 48, 6-Bromo-8-ethyl-3-{(S)-2-hydroxy-3-[(2R,3S)-3-hydroxypiperidin-2-yl]propyl}quinazolin-4(3H)-one hydrochloride], for which the negative-log IC50 (pIC50) in data set [1] (setting [5]) is 7.08. The GSH adduct formation entry in data set [2] is “Negative”.

For the compound `O=C(CC1NCCCC1O)Cn1cnc2cc(Br)c(Cl)cc2c1=O` (stereo not drawn) [Halofuginone, 7-bromo-6-chloro-3-[3-(3-hydroxy-2-piperidinyl)-2-oxopropyl]-4(3H)-quinazolinone], in data set [3], the toxicity in humans result is “nausea, vomiting, and fatigue, and possibly bleeding complications”. Besides, the anti-fibrotic properties entry in data set [4] is “anti-fibrotic properties in vivo”.
